Reference: US20240173380A1, “CONNEXIN 43 FOR USE IN THE TREATMENT OF A CANCER TYPE CHARACTERIZED BY THE ACTIVATION OF A MITOGEN-ACTIVATED PROTEIN KINASE” (FUNDACIÓN PROFESOR NOVOA SANTOS, priority 2020, published 2024)
Where a name gives a salt, the structure may show the parent alone.

Experiments:
Format in all cases: cell-based, human
[1] = system: A375 melanoma cells (BRAF mutation); assay: Cell proliferation and colony formation (xCELLigence, CCK-8, clonogenic assay)
Method: Dojindo's highly water-soluble tetrazolium salt (WST-8) is reduced by dehydrogenase activity in cells to give a yellow-color formazan dye, which is soluble in the tissue culture media. The amount of the formazan dye generated by dehydrogenases is directly proportional to the number of living cells. Equal number of cells (1000-2000 cells) were seeded per triplicate in 96-well plates and cultured in the different conditions. Medium was replaced by 100 μL of fresh medium and 10 μL of CCK-8 reagent was added per well. After an incubation for 1 to 4 h at 37° C., absorbance was measured at 450 nm in a NanoQuant microplate reader Infinite M200 (TECAN). Results were calculated as optical density (OD) 450 nm=OD of sample−OD of blank.
The E8 xCELLigence plates were prepared by addition of 100 μL of complete media to every well. After incubation at 37° C., plates were inserted into the xCELLigence station, and the base-line impedance was measured to ensure that all wells and connections were working. Following harvesting and counting, cells were diluted to the selected seeding density and 100 μl of cells in culture medium was added to each well. For the cell proliferation assays for each condition, 1×10^3-5×10^3 cells/well was seeded into 100 μL of media in the E-Plate L8 (Acea Biosciences). The attachment and proliferation of the cells were monitored every 30 min. Cell proliferation was monitored for 48-72 h. Cell Index at each time point is defined as (Rn−Rb)/15, where Rn is the cell-electrode impedance of the well when it contains cells and Rb is the background impedance of the well with the media alone. For the cell adhesion assays, for each condition, 1×10^3-5×10^3 cells/well was seeded into 100 μL of media in E-Plate L8 (Acea Biosciences). Cell proliferation was monitored for 1 h every 10 sec. The extend of cell adhesion and spreading was monitored every min for 1-3 h. Cell Index at each time point is defined as (Rn−Rb)/15, where Rn is the cell-electrode impedance of the well when it contains cells and Rb is the background impedance of the well with the media alone.
(§1) Colony formation assays were performed by seeding 5×10^3 to 5×10^4 cells per well onto 6-12 well plates and grown for 7-15 days. The culture medium was replaced every 48 h. The cells were washed with warm Saline Solution and fixed with cold 2% PFA for 15 min. Cells were washed with 1×PBS and stained with 0.1% of crystal violet (Sigma-Aldrich) for 15 min. After staining, the cells were washed with distilled water and dried at room temperature. The colonies were quantified by diluting crystal violet in 5% acetic acid and 100 μL of the solution was collected to measure the absorbance at 570 nm using a NanoQuant microplate reader Infinite M200 (TECAN).

[2] = system: A375 cell line; assay: Gap junction intercellular communication: scrape loading and dye transfer; conditions: A375 transfected with Cx43 vector vs empty vector (EV)
Method: Cells were seeded on 6 or 12 wells and cultured until 80-100% of confluence and rinsed twice with warm PBS. Lucifer Yellow CH dilithium salt (1 mg/mL) (LY: Cell Projects Ltd© Kent) in PBS was added to the cells and parallel cuts (3 cuts per well) were performed with a surgical blade (Swann-Mortonscalpel®). After 3-5 min at 37° C. cells were washed with PBS and fixed 2% PFA in PBS. LY becomes incorporated by cells along the cut and move from the dye-loaded cells into adjacent ones connected by functional gap junction channels. The areas for LY loading were randomly selected in the central part of wells to obtain the images for quantification. Images were captured with 10× objective using a Nikon Eclipse Ti fluorescent microscope. The constant exposures were used for all images for a given experiment. Ten images per sample were quantified. The score was calculated as the ratio of the number of non-damage LY positive cells at the edge and the number of the LY positive cells outside the edge.
Cells were seeded on 12-wells plated and cultured until 80-100% of confluence. […] The fluorescence emitted was measured at 640/40 nm and 540/40 nm with two photodetectors, the time course of the passage of dye from the injected cell to the adjacent cells was studied.

[3] = system: A375 tumour cell line; assay: Cellular senescence: SA-β-Gal staining and flow cytometry
Method: The detection of SA-β-Gal activity was measured using the Senescence Cells Histochemical Staining Kit (Sigma-Aldrich). Cells were rinsed with warm PBS and fixed for 7 min at RT with a fixation buffer composed by 2% paraformaldehyde and 0.2% glutaraldehyde. After three washed with PBS, cells were incubated for 6 h or O/N at 37° C. without CO2 in a staining solution containing X-gal. This lactose analogue can be cleaved by β-galactosidase producing a blue insoluble product. Finally, cells were washed with PBS and images were taken using a light microscope.
SA-β-Gal activity was analyzed with the fluorogenic β-Galactosidase substrate di-β-D-galactopyranoside (FDG, Thermo Fisher Scientific), which is hydrolyzed by the endogenous β-galactosidase to fluorescein (FITC). Cells were harvested and incubated in a staining medium (PBS, 4% FBS, 10 mM HEPES, pH 7.2) at 37° C. for 10 min. The β-Galactosidase assay was started by adding warm 2 mM FDG to the cell suspension and after incubating for 3 min at 37° C. in the dark. The reaction was stopped with the addiction of ice-cold staining medium to the cells, which were kept on ice protected from light. […] was used for fluorescein and acquiring 20,000 event per triplicate. Data was analyzed using the FCS Express 6 Flow software.

[4] = system: p53 and p16 in A375 cells; assay: Western blot of senescence biomarkers p53 and p16; conditions: Cx43 cells vs cells transfected with empty vector
Excerpt: (§2) The insoluble fraction was resuspended in lysis buffer (membrane).

[5] = system: A375 melanoma cells; assay: Apoptosis assay, PI/YO-PRO-1 double staining, flow cytometry
Method: Supernatants (died cells) were aspirated and attached cells were harvested. Supernatants and cells were mixed, counted and 1 million cells were resuspended in 1 mL in flow cytometry (FC) buffer. Membrane viability analysis was performed by double staining PI/YO-PRO-1. YO-PRO-1 (Invitrogen) was added to the cells (150 nM) and incubated 10 min in the dark at 4° C. PI (Invitrogen) was added (2 μg/mL) and incubated for 5 min in the dark at 4° C. After the incubation time (PI/YO-PRO) samples were analyzed in a FACs Scalibur acquiring 20,000 event per triplicate. The red fluorescence emitted by PI was detected at 610 nm and the green florescence emitted by YO-PRO was detected at 515 nm. Data was analyzed using the FCS Express 6 Flow software.

[6] = system: HT29 colorectal cancer cells (BRAF mutation); assay: Colony formation assay; conditions: HT29 transfected with Cx43 vector vs EV
Method: as §1

[7] = system: MDA-MB-231 breast cancer cells (BRAF mutation); assay: Colony formation assay; conditions: MDA-MB-231 transfected with Cx43 vector vs EV
Method: as §1

[8] = system: Sk-Mel-147 melanoma cells (NRAS mutation); assay: Colony formation assay; conditions: Sk-Mel-147 transfected with Cx43 vector
Method: as §1

[9] = system: cleaved caspase 3 in A375 cells; assay: Cleaved caspase 3 western blot
Excerpt: as §2

[10] = system: A375 cells resistant to BRAF/MEKi (DR); assay: Apoptosis assay (PI/YO-PRO-1) in double resistant cells; conditions: DR A375 cells transfected with Cx43 vector
Method: The BRAF mutated tumour cell lines A375 (melanoma), SK-Mel-28 (melanoma), MDA-MB-231 (human breast cancer) and HT-29 (human colorectal adenocarcinoma) were also used to test the role of Cx43 in drug resistance. SK-Mel147 (melanoma), NRAS mutated cell line was selected to compare the results with BRAF mutant cell lines. Cells were cultured in Dulbecco's modified Eagle's medium (DMEM) (Lonza) supplemented with 10% fetal bovine serum (FBS) (Gibco, Thermo Fisher Scientific) and 100 U/mL penicillin and 100 μg/ml streptomycin (Gibco, Thermo Fisher Scientific). […] After adding DMEM supplemented with 10% FBS, cells were transferred to falcon tube and counted using the Neubauer chamber method in a light microscope. […]
Supernatants (died cells) were aspirated and attached cells were harvested. Supernatants and cells were mixed, counted and 1 million cells were resuspended in 1 mL in flow cytometry (FC) buffer. […] After the incubation time (PI/YO-PRO) samples were analyzed in a FACs Scalibur acquiring 20,000 event per triplicate. The red fluorescence emitted by PI was detected at 610 nm and the green florescence emitted by YO-PRO was detected at 515 nm. Data was analyzed using the FCS Express 6 Flow software.

## CC1(C)[C@@H](OC(=O)CCC(=O)O)CC[C@]2(C)[C@H]3C(=O)C=C4[C@@H]5C[C@@](C)(C(=O)O)CC[C@]5(C)CC[C@@]4(C)[C@]3(C)CC[C@@H]12 [CBX, Carbenoloxolone disodium salt, reference compound]
[1]; 100 μM CBX for 7 days, A375 EV and Cx43-overexpressing cells
  colony formation capacity: No changes were detected in colony formation capacity

## Cx43: channel protein Connexin 43, restored in tumour cells with a pIRESpuro2 plasmid containing the human Cx43 sequence
[2]
  dye coupling (GJIC): increased levels of dye coupling compared with control EV
[1]; A375-Cx43 after 1-2 weeks and 4 months under 1 nM T/100 nM D
  cell proliferation and colony formation capacity: significantly less cell proliferation and colony formation capacity
[1]; A375-Cx43 after 2 weeks under 1 nM T/100 nM D
  cells detected: Almost no cells were detected
[1]; A375 transfected with Cx43 vector vs empty vector, xCelligence, colony formation, CCK8
  proliferation rate: significant reduction in the proliferation rate
[1]; A375 with Cx43 vector plus different concentrations of dabrafenib and trametinib for 7 days
  capacity to form colonies: significantly decreases the capacity to form colonies
[3]; A375-Cx43 vs A375-EV under 100 nM dabra and 1 nM trame for 5 days
  cellular senescence (flow cytometry, β-Gal staining): enhanced cellular senescence
[3]; Cx43 re-expression by vector in A375, no drug
  cellular senescence (ß-Galactosidase activity): increases cellular senescence
[4]
  levels of senescent biomarkers p53 and p16: higher levels of the senescent biomarkers p53 and p16 than control cells
[5]; A375-Cx43 under BRAF/MEKi treatment (100 nM dabra, 1 nM trame, 5 days)
  apoptosis: increases cellular senescence and apoptosis
[5]; Cx43 overexpressing A375 vs empty vector
  basal percentage of early apoptotic cells: significantly higher
[6]
  capacity to form colonies: significantly decreases the capacity to form colonies
[7]
  capacity to form colonies: significantly decreases the capacity to form colonies
[8]
  capacity to form colonies: significantly decreases the capacity to form colonies
[9]; Cx43 overexpression in combination with BRAF/MEKi (1/100 nM T/D, 5 days)
  levels of cleaved caspase-3: showed the highest levels of cleavage caspase-3
[9]; Cx43 overexpression with BRAF/MEKi (T/D 4 days) followed by 24 h 3.5 μM NAV
  levels of cleaved caspase-3: showed the highest levels of cleavage caspase-3
[10]
  MFI ratio of apoptotic cells: increases the MFI ratio of apoptotic cells
